The text below walks through data of paper PMC9663428, “The protein conformational basis of isoflavone biosynthesis” (Communications Biology, 2022).

This assay has as its target T1, 2-HID (Pueraria montana, UniProt E9M5G1).
T1 construct: His-tagged (Ni-NTA) from pDEST17, expressed in E. coli BL21(DE3); first eight residues not observed; one molecule per asymmetric unit
T1 sequence (E9M5G1 1-325): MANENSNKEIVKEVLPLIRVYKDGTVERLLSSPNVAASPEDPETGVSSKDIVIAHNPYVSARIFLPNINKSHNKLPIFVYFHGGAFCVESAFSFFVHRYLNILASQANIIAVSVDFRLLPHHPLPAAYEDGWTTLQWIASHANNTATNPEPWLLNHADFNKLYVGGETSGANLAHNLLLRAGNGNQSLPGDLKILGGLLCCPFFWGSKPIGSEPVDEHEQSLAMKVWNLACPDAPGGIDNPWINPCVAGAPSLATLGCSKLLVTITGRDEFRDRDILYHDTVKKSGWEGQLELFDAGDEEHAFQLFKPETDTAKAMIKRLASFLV
Briefly: X-ray crystal structure, co-crystallization, […] Å. Type of assay: binding. The conditions noted are these: carboxylesterase product; active site, hydrogen bond to Thr168; complex is 8EA1 or 8EA2, paper does not say which.

Consider `O=[N+]([O-])c1ccc(O)cc1` [p-nitrophenol], for which the “X-ray crystal structure, co-crystallization, 2.3 Å” value is reported as “only a structure of 2-HID complexed with p-nitrophenol, a product of the carboxylesterase reaction”.
